PubChem BioAssay AID192 (DTP/NCI, 2004)
Several values for one entry are separate records, joined by “and”; a condition that tells them apart may be missing. Equal values may be shown once. Inconclusive results and toxic doses are left out. How the source made its calls: active means survival T/C of 150% or more; inactive means T/C below 125% in these data.

System: BDF1 mice, B16 melanoma ip, median survival T/C
Experiment: NCI In Vivo Anticancer Drug Screen. Data for tumor model B16 Melanoma (intraperitoneal) in B6D2F1 (BDF1) mice
Conditions: endpoint: median survival time, higher = longer survival
Procedure, shortened: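 In this screen, activity was judged from survival or tumor size in treated versus vehicle-treated tumor-bearing mice, reported as T/C.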

[1] = dose: 25.0 mg/kg/injection, schedule: Q01DX009 (ip), vehicle: Klucel (hydroxypropylcellulose) (HPC)
[2] = dose: 50.0 mg/kg/injection, schedule: Q01DX009 (ip), vehicle: Klucel (hydroxypropylcellulose) (HPC)
[3] = dose: 100.0 mg/kg/injection, schedule: Q01DX009 (ip), vehicle: Klucel (hydroxypropylcellulose) (HPC)
[4] = dose: 100.0 mg/kg/injection, schedule: Q04DX003 (ip), vehicle: Klucel (hydroxypropylcellulose) (HPC)
[5] = dose: 200.0 mg/kg/injection, schedule: Q04DX003 (ip), vehicle: Klucel (hydroxypropylcellulose) (HPC)
[6] = dose: 50.0 mg/kg/injection, schedule: Q04DX003 (ip), vehicle: Klucel (hydroxypropylcellulose) (HPC)
[7] = dose: 200.0 mg/kg/injection, schedule: Q01DX009 (ip), vehicle: Klucel (hydroxypropylcellulose) (HPC)
[8] = dose: 400.0 mg/kg/injection, schedule: Q01DX009 (ip), vehicle: Klucel (hydroxypropylcellulose) (HPC)
[9] = dose: 6.25 mg/kg/injection, schedule: Q01DX009 (ip), vehicle: saline
[10] = dose: 12.5 mg/kg/injection, schedule: Q01DX009 (ip), vehicle: saline
[11] = dose: 25.0 mg/kg/injection, schedule: Q01DX009 (ip), vehicle: saline
[12] = dose: 50.0 mg/kg/injection, schedule: Q01DX009 (ip), vehicle: saline
[13] = dose: 100.0 mg/kg/injection, schedule: Q01DX009 (ip), vehicle: saline
[14] = dose: 0.75 mg/kg/injection, schedule: Q01DX009 (ip), vehicle: saline with Tween-80
[15] = dose: 1.5 mg/kg/injection, schedule: Q01DX009 (ip), vehicle: saline with Tween-80
[16] = dose: 3.0 mg/kg/injection, schedule: Q01DX009 (ip), vehicle: saline with Tween-80
[17] = dose: 400.0 mg/kg/injection, schedule: Q01DX009 (ip), vehicle: saline
[18] = dose: 6.25 mg/kg/injection, schedule: Q01DX009 (ip), vehicle: saline with Tween-80
[19] = dose: 0.5 mg/kg/injection, schedule: Q01DX009 (ip), vehicle: saline
[20] = dose: 1.0 mg/kg/injection, schedule: Q01DX009 (ip), vehicle: saline
[21] = dose: 2.0 mg/kg/injection, schedule: Q01DX009 (ip), vehicle: saline

Measured: T/C

S=C1SCN(Cc2ccccc2)CN1Cc1ccccc1
inactive: [1] 102 % of control and 120 % of control | [2] 102 % of control and 108 % of control | [3] 90 % of control and 97 % of control and 105 % of control

C=COCCCCCC(C)C
inactive: [1] 97 % of control | [2] 102 % of control | [3] 86 % of control and 91 % of control

COC1=C2CC(C)CC(OC)C(O)C(C)/C=C(\C)C(OC(N)=O)C(OC)/C=C\C=C(/C)C(=O)NC(=C(/C=N/N3CCOCC3)C1=O)C2=O (configuration not stated)
inactive: dose: 12.5 mg/kg/injection, schedule: Q01DX005 (ip), vehicle: other 106 % of control | dose: 25.0 mg/kg/injection, schedule: Q01DX005 (ip), vehicle: other 97 % of control | dose: 100.0 mg/kg/injection, schedule: Q01DX005 (ip), vehicle: other 106 % of control | dose: 200.0 mg/kg/injection, schedule: Q01DX005 (ip), vehicle: other 89 % of control

CNc1ccc(S(=O)(=O)O)cc1
inactive: [4] 100 % of control | [5] 100 % of control | dose: 400.0 mg/kg/injection, schedule: Q04DX003 (ip), vehicle: Klucel (hydroxypropylcellulose) (HPC) 86 % of control

CCC(C)c1ccccc1OC(=O)Nc1ccc(OC)cc1 (configuration not stated)
inactive: [2] 100 % of control | [6] 106 % of control | [3] 103 % of control | [4] 106 % of control | [7] 100 % of control | [5] 103 % of control

CC(C)CCOC(=O)C(O)c1ccccc1 (configuration not stated)
inactive: [3] 87 % of control | [7] 93 % of control | [8] 87 % of control

Cc1cc(C)c(NC(=O)Nc2cccc3ccccc23)c(C)c1
inactive: [1] 91 % of control | [2] 95 % of control

CCN(CC)CCCC(C)Nc1c2ccc(C)cc2nc2ccc(OC)cc12 (configuration not stated)
inactive: [9] 89 % of control | [10] 99 % of control and 114 % of control | [11] 124 % of control | [12] 122 % of control and 123 % of control

CSCCCCCCSC
inactive: [2] 93 % of control | [3] 105 % of control | [7] 106 % of control

CCNC(Cc1ccccc1)C1CCCO1 (configuration not stated)
inactive: [9] 122 % of control | [10] 120 % of control | [11] 115 % of control | [12] 115 % of control | [13] 100 % of control

CCOC(=O)CCCc1c[nH]c2ccccc12
inactive: dose: 100.0 mg/kg/injection, schedule: Q01DX009 (ip), vehicle: saline with Tween-80 107 % of control | dose: 100.0 mg/kg/injection, schedule: Q04DX003 (ip), vehicle: saline with Tween-80 109 % of control | dose: 200.0 mg/kg/injection, schedule: Q01DX009 (ip), vehicle: saline with Tween-80 115 % of control | dose: 200.0 mg/kg/injection, schedule: Q04DX003 (ip), vehicle: saline with Tween-80 93 % of control | dose: 400.0 mg/kg/injection, schedule: Q01DX009 (ip), vehicle: saline with Tween-80 107 % of control | dose: 400.0 mg/kg/injection, schedule: Q04DX003 (ip), vehicle: saline with Tween-80 95 % of control

Oc1ccc(Br)cc1-c1nc2cc(Cl)c(Cl)cc2nc1-c1cc(Br)ccc1O
inactive: [1] 87 % of control | [2] 86 % of control | [3] 91 % of control and 94 % of control

CCC[CH2][Sn]([CH2]CCC)([S]C#N)[S]C#N
inactive: [14] 98 % of control | [15] 101 % of control | [16] 98 % of control

CCN(CC)CCOc1cc(C)ccc1C(C)C
inactive: [2] 111 % of control | [6] 95 % of control | [4] 97 % of control | [5] 86 % of control

c1cc2c(c(CC3CO3)c1CC1CO1)OCCOCCOCCOCCO2 (configuration not stated)
inactive: dose: 50.0 mg/kg/injection, schedule: Q01DX009 (ip), vehicle: saline + Tween-80 + alcohol 109 % of control | dose: 100.0 mg/kg/injection, schedule: Q01DX009 (ip), vehicle: saline + Tween-80 + alcohol 118 % of control

Cc1ccc(Cl)cc1NC(=O)c1ccc(Cl)cc1Cl
inactive: [4] 95 % of control | [5] 102 % of control

CC(=O)[C@]1(O)Cc2c(O)c3c(c(O)c2[C@@H](OC2CC(N)C(O)C(C)O2)C1)C(=O)c1c(O)cccc1C3=O (some centres not stated)
inactive: dose: 0.04 mg/kg/injection, schedule: Q01DX001 (ip), vehicle: water 105 % of control | dose: 0.08 mg/kg/injection, schedule: Q01DX001 (ip), vehicle: water 113 % of control and 124 % of control | dose: 0.16 mg/kg/injection, schedule: Q01DX001 (ip), vehicle: water 124 % of control | dose: 0.38 mg/kg/injection, schedule: Q01DX001 (ip), vehicle: water 124 % of control

CCCN(CCC)C(=O)c1cccnc1
inactive: [13] 102 % of control | dose: 200.0 mg/kg/injection, schedule: Q01DX009 (ip), vehicle: saline 106 % of control | [17] 113 % of control

CCCCCCCCCCCCNC(=O)Nc1cccc(C)c1C
inactive: [3] 100 % of control | [7] 100 % of control | [8] 96 % of control

CCCCc1ccc2nc(NC(=O)OC)[nH]c2c1
inactive: [18] 106 % of control | dose: 12.5 mg/kg/injection, schedule: Q01DX009 (ip), vehicle: saline with Tween-80 112 % of control | dose: 25.0 mg/kg/injection, schedule: Q01DX009 (ip), vehicle: saline with Tween-80 115 % of control

[O-]c1cc2c3c(c1)c1cc4c(cc1c[n+]3C=C2)OCO4
inactive: dose: 3.13 mg/kg/injection, schedule: Q01DX009 (ip), vehicle: water 96 % of control | dose: 6.25 mg/kg/injection, schedule: Q01DX009 (ip), vehicle: water 121 % of control | dose: 12.5 mg/kg/injection, schedule: Q01DX009 (ip), vehicle: water 122 % of control | dose: 25.0 mg/kg/injection, schedule: Q01DX009 (ip), vehicle: water 124 % of control | dose: 50.0 mg/kg/injection, schedule: Q01DX009 (ip), vehicle: water 114 % of control

CCC(=O)c1ccc2c(c1)N(CCCN1CCN(CCO)CC1)c1ccccc1S2
inactive: dose: 0.25 mg/kg/injection, schedule: Q01DX009 (ip), vehicle: saline 100 % of control | [19] 95 % of control | [20] 92 % of control | [21] 89 % of control | dose: 4.0 mg/kg/injection, schedule: Q01DX009 (ip), vehicle: saline 105 % of control

Cc1cccc(NC(=O)c2cccc(C(=O)Nc3cccc(C)c3C)c2)c1C
inactive: [3] 100 % of control | [7] 90 % of control | [8] 86 % of control

Cc1nc2ccccc2nc1CI
inactive: [14] 106 % of control | [15] 93 % of control | [16] 106 % of control | dose: 6.0 mg/kg/injection, schedule: Q01DX009 (ip), vehicle: saline with Tween-80 93 % of control | [18] 91 % of control

Cn1c(O)c(C=N)c(=O)n(C)c1=O
inactive: dose: 25.0 mg/kg/injection, schedule: Q01DX009 (ip), vehicle: other 111 % of control | dose: 50.0 mg/kg/injection, schedule: Q01DX009 (ip), vehicle: other 102 % of control

O=C(O)CCNCCO
inactive: [17] 97 % of control

COc1cc(C2N(c3ccccc3)CCN2c2ccccc2)cc(OC)c1OC
inactive: [3] 106 % of control | [7] 103 % of control | [8] 96 % of control

CCC(=O)NC1=C(N2CC2)C(=O)C(NC(=O)CC)=C(N2CC2)C1=O
inactive: [19] 107 % of control | [20] 107 % of control | [21] 113 % of control

Nc1ccc(-c2ccc3ccccc3n2)cc1
inactive: dose: 6.25 mg/kg/injection, schedule: Q01DX009 (ip), vehicle: Klucel (hydroxypropylcellulose) (HPC) 111 % of control | dose: 12.5 mg/kg/injection, schedule: Q01DX009 (ip), vehicle: Klucel (hydroxypropylcellulose) (HPC) 104 % of control | [1] 91 % of control

O=C1N[C@H]2[C@H](CS[C@H]2CCCCC(=O)N(CCP(c2ccccc2)c2ccccc2)CCP(c2ccccc2)c2ccccc2)N1
inactive: [1] 112 % of control | [2] 120 % of control | [7] 123 % of control | [8] 108 % of control

Cc1ccc(C(=O)/C=C/c2ccccc2O)cc1
inactive: dose: 37.5 mg/kg/injection, schedule: Q01DX009 (ip), vehicle: Klucel (hydroxypropylcellulose) (HPC) 103 % of control | dose: 75.0 mg/kg/injection, schedule: Q01DX009 (ip), vehicle: Klucel (hydroxypropylcellulose) (HPC) 90 % of control | dose: 150.0 mg/kg/injection, schedule: Q01DX009 (ip), vehicle: Klucel (hydroxypropylcellulose) (HPC) 98 % of control | dose: 300.0 mg/kg/injection, schedule: Q01DX009 (ip), vehicle: Klucel (hydroxypropylcellulose) (HPC) 88 % of control
